pIC50: −log10 of the molar value.
Assays:
[1] = tested on: tumor; test: Multi-dose in vivo antitumor activity, tumor volume (Example 20); parameters: species or system mice; details: for Mouse Tumor Volume: caudal vein once every 2 days; for tumor inhibition effects of the high-dose groups compared with CPT-11 (in words): same dosage (10 mg/kg), p<0.001; for dose dependence of tumor inhibition (in words): low, medium and high dose
Protocol: The drugs are administered through the caudal veins of mice once every 2 days for a total of 7 times.
Tumor volume is measured every three days from day 0. The maximum diameter (a) of the tumor is measured first, and then the longest radial line (b) perpendicular to the maximum diameter is measured, using mm as unit. Tumor volume is calculated according to the following formula: […]

[2] = tested on: 143B; test: Cytotoxicity test (MTT, 72 h); details: Homo sapiens, read-out: 50% Inhibiting Concentration value (IC50)
Protocol: (§1) In order to investigate the antitumor activities of the compounds, a variety of tumor cell lines for test are selected. Cells at logarithmic growth period are inoculated in a 96-well plate overnight, then drugs with a certain gradient concentrations are added, and incubation is carried out in a cell culture chamber (5% CO2, 37° C.) for 72 h.

[3] = tested on: H1975; test: Cytotoxicity test (MTT, 72 h); details: Homo sapiens, NCI-H1975, 72 h, read-out: 50% Inhibiting Concentration value (IC50)
Protocol: as §1

[4] = tested on: HCT-116; test: Cytotoxicity test (MTT, 72 h); details: Homo sapiens, HCT-116, 72 h, read-out: 50% Inhibiting Concentration value (IC50)
Protocol: as §1

[5] = tested on: SKOV-3; test: Cytotoxicity test (MTT, 72 h); details: Homo sapiens, SK-OV-3, 72 h, read-out: 50% Inhibiting Concentration value (IC50)
Protocol: Cells at logarithmic growth period are inoculated in a 96-well plate overnight, then drugs with a certain gradient concentrations are added, and incubation is carried out in a cell culture chamber (5% CO2, 37° C.) for 72 h.

[6] = tested on: K562; test: Cytotoxicity test (MTT, 72 h); details: Homo sapiens, K562, 72 h, read-out: 50% Inhibiting Concentration value (IC50)
Protocol: as §1

## CCc1c2c(nc3ccc(OC(=O)OCCOCCOCCOCc4cn(CCO[C@H]5O[C@@H](CO)[C@H](O)[C@@H](O)[C@@H]5O)nn4)cc13)-c1cc3c(c(=O)n1C2)COC(=O)[C@]3(O)CC [Compound 58]
[1]; day 0, high-dose group (H) 13.73 mg/kg
  Mouse Tumor Volume: 120.63 mm^3
[1]; day 0, low-dose group (L) 3.433 mg/kg
  Mouse Tumor Volume: 110.67 mm^3
[1]; day 0, medium-dose group (M) 6.865 mg/kg
  Mouse Tumor Volume: 113.01 mm^3
[1]; day 3, high-dose group (H) 13.73 mg/kg
  Mouse Tumor Volume: 151.62 mm^3
[1]; day 3, low-dose group (L) 3.433 mg/kg
  Mouse Tumor Volume: 164.30 mm^3
[1]; day 3, medium-dose group (M) 6.865 mg/kg
  Mouse Tumor Volume: 106.18 mm^3
[1]; day 6, high-dose group (H) 13.73 mg/kg
  Mouse Tumor Volume: 206.78 mm^3
[1]; day 6, low-dose group (L) 3.433 mg/kg
  Mouse Tumor Volume: 235.34 mm^3
[1]; day 6, medium-dose group (M) 6.865 mg/kg
  Mouse Tumor Volume: 122.56 mm^3
[1]; day 9, high-dose group (H) 13.73 mg/kg
  Mouse Tumor Volume: 254.08 mm^3
[1]; day 9, low-dose group (L) 3.433 mg/kg
  Mouse Tumor Volume: 252.37 mm^3
[1]; day 9, medium-dose group (M) 6.865 mg/kg
  Mouse Tumor Volume: 151.19 mm^3
[1]; day 12, high-dose group (H) 13.73 mg/kg
  Mouse Tumor Volume: 317.44 mm^3
[1]; day 12, low-dose group (L) 3.433 mg/kg
  Mouse Tumor Volume: 316.07 mm^3
[1]; day 12, medium-dose group (M) 6.865 mg/kg
  Mouse Tumor Volume: 141.38 mm^3
[1]; day 15, high-dose group (H) 13.73 mg/kg
  Mouse Tumor Volume: 430.78 mm^3
[1]; day 15, low-dose group (L) 3.433 mg/kg
  Mouse Tumor Volume: 375.47 mm^3
[1]; day 15, medium-dose group (M) 6.865 mg/kg
  Mouse Tumor Volume: 141.13 mm^3
[1]; day 18, high-dose group (H) 13.73 mg/kg
  Mouse Tumor Volume: 519.79 mm^3
[1]; day 18, low-dose group (L) 3.433 mg/kg
  Mouse Tumor Volume: 401.94 mm^3
[1]; day 18, medium-dose group (M) 6.865 mg/kg
  Mouse Tumor Volume: 134.18 mm^3
[1]; day 21, high-dose group (H) 13.73 mg/kg
  Mouse Tumor Volume: 555.67 mm^3
[1]; day 21, low-dose group (L) 3.433 mg/kg
  Mouse Tumor Volume: 433.61 mm^3
[1]; day 21, medium-dose group (M) 6.865 mg/kg
  Mouse Tumor Volume: 142.06 mm^3
[1]; high-dose group, after last administration
  increase of tumor volume compared with other groups (in words): slowest increase
[1]
  tumor inhibition effects of the high-dose groups compared with CPT-11 (in words): better than that of positive control group CPT-11
  dose dependence of tumor inhibition (in words): dose-dependent
[2]
  pIC50: 5.11
[3]
  pIC50: 5.03
[4]
  pIC50: 5.70
[5]
  pIC50: 6.12
[6]
  pIC50: 5.78

## CCc1c2c(nc3ccc(OC(=O)NCCOCc4cn(CCO[C@H]5O[C@@H](CO)[C@H](O)[C@@H](O)[C@@H]5O)nn4)cc13)-c1cc3c(c(=O)n1C2)COC(=O)[C@]3(O)CC [Compound 67]
[1]; day 0, high-dose group (H) 12.30 mg/kg
  Mouse Tumor Volume: 121.62 mm^3
[1]; day 0, low-dose group (L) 3.075 mg/kg
  Mouse Tumor Volume: 125.58 mm^3
[1]; day 0, medium-dose group (M) 6.15 mg/kg
  Mouse Tumor Volume: 161.01 mm^3
[1]; day 3, high-dose group (H) 12.30 mg/kg
  Mouse Tumor Volume: 91.15 mm^3
[1]; day 3, low-dose group (L) 3.075 mg/kg
  Mouse Tumor Volume: 194.43 mm^3
[1]; day 3, medium-dose group (M) 6.15 mg/kg
  Mouse Tumor Volume: 168.50 mm^3
[1]; day 6, high-dose group (H) 12.30 mg/kg
  Mouse Tumor Volume: 96.67 mm^3
[1]; day 6, low-dose group (L) 3.075 mg/kg
  Mouse Tumor Volume: 197.42 mm^3
[1]; day 6, medium-dose group (M) 6.15 mg/kg
  Mouse Tumor Volume: 208.68 mm^3
[1]; day 9, high-dose group (H) 12.30 mg/kg
  Mouse Tumor Volume: 103.36 mm^3
[1]; day 9, low-dose group (L) 3.075 mg/kg
  Mouse Tumor Volume: 278.06 mm^3
[1]; day 9, medium-dose group (M) 6.15 mg/kg
  Mouse Tumor Volume: 220.90 mm^3
[1]; day 12, high-dose group (H) 12.30 mg/kg
  Mouse Tumor Volume: 110.74 mm^3
[1]; day 12, low-dose group (L) 3.075 mg/kg
  Mouse Tumor Volume: 420.38 mm^3
[1]; day 12, medium-dose group (M) 6.15 mg/kg
  Mouse Tumor Volume: 295.90 mm^3
[1]; day 15, high-dose group (H) 12.30 mg/kg
  Mouse Tumor Volume: 133.88 mm^3
[1]; day 15, low-dose group (L) 3.075 mg/kg
  Mouse Tumor Volume: 498.90 mm^3
[1]; day 15, medium-dose group (M) 6.15 mg/kg
  Mouse Tumor Volume: 378.20 mm^3
[1]; day 18, high-dose group (H) 12.30 mg/kg
  Mouse Tumor Volume: 116.64 mm^3
[1]; day 18, low-dose group (L) 3.075 mg/kg
  Mouse Tumor Volume: 587.60 mm^3
[1]; day 18, medium-dose group (M) 6.15 mg/kg
  Mouse Tumor Volume: 404.02 mm^3
[1]; day 21, high-dose group (H) 12.30 mg/kg
  Mouse Tumor Volume: 103.48 mm^3
[1]; day 21, low-dose group (L) 3.075 mg/kg
  Mouse Tumor Volume: 624.45 mm^3
[1]; day 21, medium-dose group (M) 6.15 mg/kg
  Mouse Tumor Volume: 394.44 mm^3
[1]
  tumor inhibition effects of the high-dose groups compared with CPT-11 (in words): better than that of positive control group CPT-11
  dose dependence of tumor inhibition (in words): dose-dependent
[2]
  pIC50: 5.25
[3]
  pIC50: 5.17
[4]
  pIC50: 6.63
[5]
  pIC50: 5.90
[6]
  pIC50: 6.71
